{
  "source": "ChEMBL document CHEMBL1124571",
  "about": "“Cardiac glycoside-like structure and function of 5 beta,14 beta-pregnanes” (J Med Chem, 1989)",
  "data": [
    {"biological_target": "Sodium/potassium-transporting ATPase", "experiment": "Compound is evaluated for inhibition of specific binding of [3H]ouabain to membranes from dog heart", "parameters": "species or system Canis lupus familiaris", "units": {"IC50": "µM"}, "values": [
      {"molecule": "CC(=O)[C@H]1CC[C@@]2(O)[C@@H]3CC[C@H]4CC(=O)CC[C@]4(C)[C@H]3CC[C@]12C", "IC50": 46},
      {"molecule": "C[C@H](O)[C@H]1CC[C@@]2(O)[C@@H]3CCC4C[C@@H](OC5CC(O)C(O)C(CO)O5)CC[C@]4(C)[C@H]3CC[C@]12C", "note": "(stereo in doubt)", "IC50": 0.06},
      {"molecule": "CC(=O)[C@H]1CC[C@@]2(C)[C@@H](CC[C@@H]3[C@@H]2CC[C@]2(C)[C@@H](C(C)=O)CC[C@@]32O)C1", "IC50": 20},
      {"molecule": "CC(=O)[C@@H]1CC[C@@]2(C)[C@@H](CC[C@@H]3[C@@H]2CC[C@]2(C)C([C@H](C)O)CC[C@@]32O)C1", "note": "(stereo partly drawn)", "IC50": 6},
      {"molecule": "C[C@H](O)[C@H]1CC[C@@]2(O)[C@@H]3CCC4C[C@@H](OC5CC(O)C(O)C(CO)O5)CC[C@]4(C)[C@H]3CC[C@]12C", "note": "(stereo in doubt; 5)", "IC50": 0.4},
      {"molecule": "CC(=O)[C@H]1CCC2(O)C3CCC4CC(O)CCC4(C)C3CCC12C", "note": "(stereo partly drawn)", "IC50": "> 400"},
      {"molecule": "CC(=O)[C@H]1CC[C@@]2(O)[C@@H]3CC[C@H]4C[C@@H](O)CC[C@]4(C)[C@H]3CC[C@]12C", "IC50": 21},
      {"molecule": "CC(O)[C@H]1CC[C@@]2(O)[C@@H]3CCC4C[C@@H](O)CC[C@]4(C)[C@H]3CC[C@]12C", "note": "(stereo partly drawn)", "IC50": 6}
    ]}
  ]
}
